Where two headings read alike, the source gives them in different places.
Experiments:
[1] = Pharmacokinetic evaluation in ICR mice after intravenous injection; type: in vivo; conditions: mouse; ICR male mice, 1.0 mg/kg intravenous, plasma
Procedure: A test compound (1.0 mg/kg) was administered to fasted ICR male mice via intravenous injection, and blood samples were collected at time points of 0.08, 0.25, 0.5, 1, 2, 4, 6, 8 and 24 h after the administration. Plasma sample was separated by centrifugation (8000 rpm) and stored at −80° C. until the sample was analyzed. Concentrations of the test compound in the plasma were determined by HPLC-MS/MS: the plasma was dispensed into appropriate tubes containing internal standard and methanol or acetonitrile. The tubes were mixed vigorously for 3 minutes to achieve deproteinization and then centrifuged at 8000 rpm for 5 minutes. The supernatant was transferred to an autosampler vial, injected into the chromatographic system, and quantified on MS/MS detector. Pharmacokinetic parameters including AUC0-4, Cmax, Tmax, t1/2, MRT, Cl and Vd were calculated using WinNonlin 6.3 software. Table 3 summarizes key PK parameters for test compounds (AUC(0-t): the area under the curve from time 0 to time t; AUC(0-∞): the area under the curve from time 0 to infinity; t1/2: Half-life; CL: clearance; C0: the concentration of drug in blood if the drug molecules enter the circulation and are distributed immediately (i.e., at time 0)).

[2] = target: T1, Recombinant human 5′-nucleotidase (hCD73) (Homo sapiens, UniProt P21589); test: CD73 enzyme inhibition assay (recombinant hCD73, AMP substrate, phosphate detection); type: biochemical; conditions: 37° C. 20 min, absorbance 635 nm
T1 sequence (P21589 27-549): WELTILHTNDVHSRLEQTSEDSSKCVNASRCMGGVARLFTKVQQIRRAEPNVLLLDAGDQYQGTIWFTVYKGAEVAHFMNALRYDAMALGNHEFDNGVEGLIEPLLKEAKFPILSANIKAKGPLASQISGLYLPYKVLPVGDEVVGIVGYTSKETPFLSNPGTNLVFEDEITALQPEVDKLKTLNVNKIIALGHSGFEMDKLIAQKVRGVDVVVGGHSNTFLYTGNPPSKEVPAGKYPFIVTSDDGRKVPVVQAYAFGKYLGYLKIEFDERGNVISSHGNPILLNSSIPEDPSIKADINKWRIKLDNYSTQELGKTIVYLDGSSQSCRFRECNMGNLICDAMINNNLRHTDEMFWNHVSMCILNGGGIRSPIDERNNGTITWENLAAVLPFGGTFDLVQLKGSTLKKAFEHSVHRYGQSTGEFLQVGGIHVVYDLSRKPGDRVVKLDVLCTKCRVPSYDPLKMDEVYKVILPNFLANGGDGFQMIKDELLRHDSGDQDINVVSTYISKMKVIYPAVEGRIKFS
Procedure: Test compound solution preparation: Stock solution of a test compound was prepared in DMSO at 10 mM concentration. A series of preset 10-concentration solutions of a test compound were prepared by diluting the stock solution in 5-fold gradient dilution with DMSO.
Assay buffer (1×): […] Tris, 25 mM NaCl, 1 mM MgCl2, pH 7.5, 0.005% Tween-20 (freshly prepared, and ready for use).
An aliquot of 0.25 μL of compound solution or DMSO (blank control) was added to each test well of a micro well plate. Recombinant human 5′-nucleotidase (hCD73) was diluted to 1 nM in assay buffer; and an aliquot of 25 μL hCD73 (1 nM) solution was added to the corresponding wells of the plate. The contents of the well were well-mixed, and the plate was covered with sealing film, centrifuged at 1000 rpm for 30 sec., followed by incubation at room temperature for 15 min. AMP, the substrate, was diluted to 60 μM concentration in the assay buffer. To each reaction well was added 25 μL of AMP solution. After mixing well, the plate was covered with sealing film, centrifuged at 1000 rpm for 30 sec., and incubated at 37° C. for 20 min. The absorbance signal (end point) was measured on SPARK plate reader at 635 nm (See PiColorLock™ Gold Phosphate Detection System (Abcam) test kit for reference).
The reaction wells containing CD73 enzyme, substrate AMP and DMSO (no compound) were used as positive control, and the reaction wells containing substrate AMP and DMSO but no CD73 enzyme were used as negative control. The percent (%) inhibition at each concentration of compound was calculated based on and relative to the signal in the High and Low control wells contained within each assay plate. The High control wells were considered as 0% inhibition, and the low control wells, which didn't contain any compound but rather DMSO (final concentration=0.5%), as 100% inhibition. IC50 values were obtained using GraphPad Prism software.

[3] = system: human T cell; test: CD73 cellular assay (T cell stimulation assay: CellTiter-Glo proliferation and IFN-γ ELISA); type: cell-based; conditions: human T cells, anti-CD3/CD28, AMP + EHNA, 72 hours
Procedure: Day 2, human T cell seeding: (a) washing the coated plate (from Day 1) with sterilized PBS buffer (2×100 uL); (b) re-suspending T cells and adjusting cell density to 0.5×10^6 cells/mL with growth media (X-VIVO 15+1% Pen/strep+1% glutamine), and seeding 100 μL/well (50,000 cells/well) in 96-well plates; (c) diluting CD28 antibody for 8× working concentration (8 μg/mL) with growth media, giving 1 μg/mL of the final concentration, followed by addition of CD28 antibody (25 μL) to cell plate; incubating the plates under 5% CO2 at 37° C. for 60 min; (d) adding compound (25 μL, 8×dilution with growth media) to cell plate, and incubating the plates under 5% CO2 at 37° C. for 60 min; (e) adding AMP (25 μL) and EHNA (25 μL, 8×dilution with growth media) to cell plate; (f) incubating the plates under 5% CO2 at 37° C. for 72 hours.
Day 5, collecting cell growth media and testing cell proliferation: (a) centrifuging the cell plate (1,000 rpm) for 5 min; (b) harvesting 150 μL of the cell culture media from each well to 96 well plate, followed by measurement of IFN-r expression by ELISA test; (c) taking a portion of the cell culture supernatant for cytokine analysis, removing the remaining supernatant, followed by addition of fresh growth media (X-VIVO 15+1% Pen/strep+1% glutamine, 100 μL); (d) adding Celltiter-Glo solution (50 μL) into each well for the measurement of cell proliferation by: (e) incubating the plates at room temperature for 10 min on a shaker; (f) transferring 100 μL solution into 96-well white plate and taking the readout of the Celltiter-Glo data using a TECAN Reader.

[4] = read-out: EC50 CTG (CellTiter-Glo, cell proliferation)
[5] = read-out: EC50 IFN-γ (ELISA, indicator for T-cell activity)

Row | SMILES | clearance [1] [mL/min/kg] | IC50 [2] [nM] | EC50 [3, 4] [nM] | EC50 [3, 5] [nM]
1 | O=P(O)(O)CP(=O)(O)OC[C@H]1O[C@@H](n2cnc3c(N4CCC5(CCCCC5)C4)nc(Cl)nc32)[C@@H](O)C1O (some centres unmarked) [Compound b, reference compound] | 1.85 | 1.08 | 7.53 | 14.2
2 | O=P(O)(O)CP(=O)(O)OC[C@H]1O[C@@H](n2cnc3c(N4CC5(CCc6ccccc65)C4)nc(Cl)nc32)[C@@H](O)C1O (stereo partly drawn) [d-1] | 2.65 | 0.47 | 3.13 | 1.45

Reference: US20240024346A1, “CD73 INHIBITORS AND PHARMACEUTICAL USES THEREOF” (RISEN (SUZHOU) PHARMA TECH CO., LTD., priority 2020, published 2024)
